Results published in patent US10111847B2, “Compounds and methods for modulating vascular injury” (The Regents of the University of California, priority 2012, dated 2018).

Columns and labels:
[1] = system: Stat1, C/EBP, SMAD, SATB1, EGR; test: Transcription factor multiplex array in TNF-α-stimulated VSMC; type: cell-based, human; settings: 10 nM; TNF-α 10 ng/ml 18 hours
Procedure: Cells are plated onto 96-well plates and treated with 10 ng/ml TNF-α in the presence or absence of 10 nM RvD2 for 18 hours and then nuclear extracts are prepared. Transcription factor profiling is performed using a multiplex array according to the manufacturer's instructions (Signosis Inc., Sunnyvale, Calif.).
FIG. 11: RvD1 and RvD2 modulate activity of multiple transcription factors in TNF-α-stimulated VSMC. VSMCs were treated with TNF-α (10 ng/ml) for 18 hours and nuclear extracts were prepared. Transcription factor profiling was performed using a multiplex array.

[2] = system: human saphenous vein endothelial (EC) cells; test: TNFα induced cellular ROS production (CellRox) in EC (Maresin-1); type: cell-based; settings: TNFα 1 ng/ml
Procedure: Mar-1. Cells were grown in 8-well chamber slides at a density of 15000 cells/well for 2 days for VSMCs and 50000 cells/well for 2 days for ECs in a 96 well plate. After treatments, cells were incubated with dihydroethidium (DHE, 3 μM, Invitrogen) or CellRox (Invitrogen Inc, 5 μM for ECs) in media for 30 minutes at 37° C. in a humidified chamber with 5% CO2 protected from light. DAPI nuclear counter staining was utilized for DHE staining. For DHE, fluorescence was detected with TRITC filter allowing the detection of the DHE emission wavelength of 590-620 nm. Fluorescence quantitation was performed using ImageJ analysis software. For ECs, fluorescence measurements were taken using a Spectramax M2e plate reader.
FIGS. 13A-13D. Representative merged images of DHE staining, counterstained with DAPI. (A), Negative control. (B), TNFα at 10 ng/ml for 4 hr. […] (E) Quantitative comparison of DHE staining intensity in the nucleus of human saphenous vein vascular smooth muscle (sv-VSMC) cells, treated with TNFα and 7S and 7R-Maresin-1 with and without pertussis toxin. (F) Quantitative comparison of cellular ROS production by CellRox (Life technologies, Carlsbad, Calif.) in human saphenous vein endothelial (EC) cells treated with TNFα (1 ng/nil) and 7S-Maresin-1 (N>=3). […]

TNF-α-stimulated EC = test: U937 monocyte adhesion to TNF-α-stimulated EC (Maresin-1); type: cell-based, human; settings: 1-100 nM, 30 min pretreatment; TNFα 1 ng/ml 4 hr
Procedure: MaR-1. VSMCs and ECs were seeded on a 96 well plate (20000 cells/well for VSMCs and 50000 cells/well for ECs) and after 2 days, were treated with Maresin-1 (1-100 nM) for 30 min followed by TNF-α for 4 hr and then calcein AM-labeled U937 cells were added on top of the VSMCs. After 15-minute incubation at 37 C, unbound cells were washed off with cold PBS. Fluorescence measurements (ex 494 nm, em 517 nm) of bound monocytes were taken with a plate reader. For capturing images, the assay was performed in 8-well chamber slides (Nunc Labtek) and images were taken after cold PBS wash (three times) following U937 incubation.
FIGS. 15A-15D. Representative images of Calcein-AM labeled U937 monocytes adhered to human sv-VSMCs pretreated with vehicle (A, B) or 7S-Maresin-1 (C) or 7S-Maresin-1 and pertussis toxin (D) for 30 min, followed by TNFα at 10 ng/ml for 4 hr (B, C, D). (E) Quantitative analysis of U937 adhesion assay in human sv-VSMCs and (F) human sv-ECs (1 ng/ml TNFα used for EC cells). […] Bar graph represents net quantitative densitometry analysis. […] Expression of MCP-1 was measured by qRT-PCR, and normalized to unstimulated cells (n=3, results are mean±SEM, P<0.05 for Mar-1 (10 and 100 nM) vs TNF alone, unpaired t-test).

p65 subunit = test: Nuclear translocation of p65 subunit in sv-ECs (immunofluorescence); type: cell-based, human; settings: 100 nm, 30 min; TNFα 1 ng/ml 2 hrs
Procedure: Immunofluorescence for p65 (RelA): 15000 VSMCs or 30000 ECs were seeded on a 8-well chamber slide. Cells received 30 min of Maresin-1 pretreatment, followed by TNF-α for 2 hr. Cells were fixed in 2% paraformaldehyde, followed by permeabilization with ice-cold acetone (10 min) and 1% Triton X-100 (20 min). Cells were incubated overnight in a humidified chamber with anti-p65 antibody (Santa Cruz Biotechnology Inc.) followed by Alexa-fluor 488 tagged secondary antibody (Life Technologies) and were visualized under a fluorescent microscope.
ECs were grown in chamber slides and treated with vehicle or 100 nm of 7S-Maresin-1 for 30 min, followed by TNFα (1 ng/ml) for 2 hrs. Cells were fixed and subsequently stained with anti-p65 (Santa Cruz Biotechnology) and secondary antibodies (Alexa-488).
FIGS. 17A-17D. Representative images of Ctrl (A), TNFα (B), 7S-Maresin-1+TNFα. (C). (D) Mean fluorescence of nucleus and cytoplasm were quantified from all groups and the net result of the ratio of nucleus over cytoplasmic mean fluorescence is depicted in the bar graph, as a measure of relative p65 nuclear translocation. (N>=3). P≤0.05, One-way ANOVA with Dunnett's post hoc test. *: P≤0.05 compared to control, unpaired t-test. †: P≤0.05 compared to TNFα, unpaired t-test. Error bars: SEM.

Row | Structure (SMILES) | transcription factor activity (Stat1, C/EBP, SMAD, SATB1, EGR) vs TNF-α-stimulated controls [1] | TNF-α-induced superoxide production in EC [2] | monocyte adhesion (U937) to TNF-α-stimulated EC (TNF-α-stimulated EC) | nuclear translocation of p65 subunit in human sv-ECs (p65 subunit)
1 | CC/C=C\C[C@H](O)[C@H](O)/C=C/C=C/C=C\C=C\[C@@H](O)C/C=C\CCC(=O)O [RvD2, resolvin D2] | significantly downregulated | – | – | –
2 | CC/C=C\C/C=C\C[C@H](O)\C=C/C=C/C=C/[C@@H](O)C/C=C\CCC(=O)O [7S-Maresin-1, 7S,14R-dihydroxydocosa-4Z,8E,10Z,12Z,16Z,19Z-hexaenoic acid] | – | significantly reduced | dose-dependent inhibition | Inhibits
